From publication PMC8550792, “Evolution of kinase polypharmacology across HSP90 drug discovery” (Cell Chemical Biology, 2021)

How the values were obtained:
Assay in all cases: biochemical
Format in all cases: biochemical
[1] = target: T1, 382 unique human kinases (Homo sapiens, UniProt P08581, Y1230D); conditions: c-MET (Y1230D), compound at 10 uM, duplicate values; for remaining activity at 10 µM: read-out: % Enzyme Activity (relative to DMSO controls)
T1 construct: purchased Reaction Biology (HotSpot contract assay)

[2] = target: T2, 382 unique human kinases (Homo sapiens, UniProt P12931, T341M); conditions: kinase c-Src (T341M), compound 10 uM; for remaining activity at 10 µM: read-out: % Enzyme Activity (relative to DMSO controls)
T2 construct: purchased Reaction Biology (HotSpot contract assay)

[3] = target: T3, 382 unique human kinases (Homo sapiens, UniProt P22455); conditions: FGFR4, 10 uM; for remaining activity at 10 µM: read-out: % Enzyme Activity (relative to DMSO controls)
T3 construct: purchased Reaction Biology (HotSpot contract assay)

[4] = target: T4, 382 unique human kinases (Homo sapiens, UniProt P22455, V550M); conditions: FGFR4 (V550M), 10 uM; for remaining activity at 10 µM: read-out: % Enzyme Activity (relative to DMSO controls)
T4 construct: purchased Reaction Biology (HotSpot contract assay)

[5] = target: T5, 382 unique human kinases (Homo sapiens, UniProt P53355); conditions: kinase DAPK1, compound 10 uM; for remaining activity at 10 µM: read-out: % Enzyme Activity (relative to DMSO controls)
T5 construct: purchased Reaction Biology (HotSpot contract assay)

[6] = target: T6, 382 unique human kinases (Homo sapiens, UniProt Q04771); conditions: ALK2/ACVR1, compound at 10 uM, duplicate values; for remaining activity at 10 µM: read-out: % Enzyme Activity (relative to DMSO controls)
T6 construct: purchased Reaction Biology (HotSpot contract assay)
T6 sequence (Q04771 21-509): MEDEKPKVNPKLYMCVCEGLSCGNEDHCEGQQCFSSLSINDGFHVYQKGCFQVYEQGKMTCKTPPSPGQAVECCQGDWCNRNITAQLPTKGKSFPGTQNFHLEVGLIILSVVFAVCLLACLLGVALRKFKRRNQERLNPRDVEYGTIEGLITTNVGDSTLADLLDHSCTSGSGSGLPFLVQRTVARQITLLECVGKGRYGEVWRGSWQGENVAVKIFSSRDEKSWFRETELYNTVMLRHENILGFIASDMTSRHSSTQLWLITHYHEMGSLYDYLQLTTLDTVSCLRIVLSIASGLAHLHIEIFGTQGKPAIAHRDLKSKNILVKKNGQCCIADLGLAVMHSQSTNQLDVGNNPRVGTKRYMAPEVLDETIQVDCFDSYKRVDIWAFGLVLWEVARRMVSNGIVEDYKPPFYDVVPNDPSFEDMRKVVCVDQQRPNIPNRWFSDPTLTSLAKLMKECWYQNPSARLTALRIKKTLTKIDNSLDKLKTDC

[7] = target: T7, 382 unique human kinases (Homo sapiens, UniProt Q16512); conditions: PKN1/PRK1, 10 uM; for remaining activity at 10 µM: read-out: % Enzyme Activity (relative to DMSO controls)
T7 construct: purchased Reaction Biology (HotSpot contract assay)

[8] = target: T8, 382 unique human kinases (Homo sapiens, UniProt Q8TD08); conditions: kinase ERK7/MAPK15, compound 10 uM; for remaining activity at 10 µM: read-out: % Enzyme Activity (relative to DMSO controls)
T8 construct: purchased Reaction Biology (HotSpot contract assay)
T8 sequence (Q8TD08 1-544): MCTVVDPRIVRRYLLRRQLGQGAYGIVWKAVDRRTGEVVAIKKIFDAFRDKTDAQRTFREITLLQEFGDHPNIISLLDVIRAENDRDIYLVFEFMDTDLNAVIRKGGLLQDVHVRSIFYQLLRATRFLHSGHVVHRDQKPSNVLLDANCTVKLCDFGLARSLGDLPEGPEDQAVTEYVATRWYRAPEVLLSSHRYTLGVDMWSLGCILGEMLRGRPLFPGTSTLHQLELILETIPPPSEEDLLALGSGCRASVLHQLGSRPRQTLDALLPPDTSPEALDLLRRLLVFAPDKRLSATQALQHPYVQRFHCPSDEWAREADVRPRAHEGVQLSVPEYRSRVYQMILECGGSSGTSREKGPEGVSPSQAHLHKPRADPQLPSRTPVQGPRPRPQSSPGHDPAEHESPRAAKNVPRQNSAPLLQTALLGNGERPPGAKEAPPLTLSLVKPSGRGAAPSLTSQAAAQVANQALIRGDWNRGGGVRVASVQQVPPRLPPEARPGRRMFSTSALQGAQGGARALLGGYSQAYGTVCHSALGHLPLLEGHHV

[9] = target: T9, 382 unique human kinases (Homo sapiens, UniProt Q9Y243, E17K); conditions: AKT3 (E17K), 10 uM; for remaining activity at 10 µM: read-out: % Enzyme Activity (relative to DMSO controls)
T9 construct: purchased Reaction Biology (HotSpot contract assay)

[10] = target: T10, 382 unique human kinases (Homo sapiens, UniProt P43405); conditions: SYK, 10 uM; for remaining activity at 10 µM: read-out: % Enzyme Activity (relative to DMSO controls)
T10 construct: purchased Reaction Biology (HotSpot contract assay)

[11] = target: T11, 382 unique human kinases (Homo sapiens, UniProt P68400); conditions: CK2a, 10 uM; for remaining activity at 10 µM: read-out: % Enzyme Activity (relative to DMSO controls)
T11 construct: purchased Reaction Biology (HotSpot contract assay)

[12] = target: T12, 382 unique human kinases (Homo sapiens, UniProt Q16832); conditions: DDR2, [ATP] 5 µM
T12 construct: purchased Reaction Biology (HotSpot contract assay)
T12 sequence (Q16832 22-855): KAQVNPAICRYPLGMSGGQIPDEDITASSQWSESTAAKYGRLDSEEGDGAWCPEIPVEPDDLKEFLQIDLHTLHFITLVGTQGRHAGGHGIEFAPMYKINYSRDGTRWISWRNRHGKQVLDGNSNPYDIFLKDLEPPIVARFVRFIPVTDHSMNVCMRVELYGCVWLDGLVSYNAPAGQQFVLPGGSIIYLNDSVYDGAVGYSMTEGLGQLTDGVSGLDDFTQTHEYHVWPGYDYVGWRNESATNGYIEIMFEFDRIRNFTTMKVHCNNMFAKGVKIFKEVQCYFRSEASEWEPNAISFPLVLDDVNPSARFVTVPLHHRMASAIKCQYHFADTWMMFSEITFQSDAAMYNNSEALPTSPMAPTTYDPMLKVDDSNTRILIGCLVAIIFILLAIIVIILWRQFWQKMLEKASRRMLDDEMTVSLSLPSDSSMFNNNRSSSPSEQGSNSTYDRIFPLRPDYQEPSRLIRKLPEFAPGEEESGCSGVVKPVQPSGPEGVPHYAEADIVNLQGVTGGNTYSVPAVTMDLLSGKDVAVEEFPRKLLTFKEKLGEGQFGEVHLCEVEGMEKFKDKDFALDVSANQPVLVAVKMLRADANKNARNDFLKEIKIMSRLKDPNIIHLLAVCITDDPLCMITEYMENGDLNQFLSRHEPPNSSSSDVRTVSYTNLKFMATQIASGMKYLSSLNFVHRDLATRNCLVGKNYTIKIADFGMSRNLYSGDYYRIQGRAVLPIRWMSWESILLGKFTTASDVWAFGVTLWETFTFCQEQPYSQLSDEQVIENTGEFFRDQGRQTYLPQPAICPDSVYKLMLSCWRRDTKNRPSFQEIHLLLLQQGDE

[13] = compound 10 uM, read-out: % Enzyme Activity (relative to DMSO controls)

T3 sequence (P22455 22-802): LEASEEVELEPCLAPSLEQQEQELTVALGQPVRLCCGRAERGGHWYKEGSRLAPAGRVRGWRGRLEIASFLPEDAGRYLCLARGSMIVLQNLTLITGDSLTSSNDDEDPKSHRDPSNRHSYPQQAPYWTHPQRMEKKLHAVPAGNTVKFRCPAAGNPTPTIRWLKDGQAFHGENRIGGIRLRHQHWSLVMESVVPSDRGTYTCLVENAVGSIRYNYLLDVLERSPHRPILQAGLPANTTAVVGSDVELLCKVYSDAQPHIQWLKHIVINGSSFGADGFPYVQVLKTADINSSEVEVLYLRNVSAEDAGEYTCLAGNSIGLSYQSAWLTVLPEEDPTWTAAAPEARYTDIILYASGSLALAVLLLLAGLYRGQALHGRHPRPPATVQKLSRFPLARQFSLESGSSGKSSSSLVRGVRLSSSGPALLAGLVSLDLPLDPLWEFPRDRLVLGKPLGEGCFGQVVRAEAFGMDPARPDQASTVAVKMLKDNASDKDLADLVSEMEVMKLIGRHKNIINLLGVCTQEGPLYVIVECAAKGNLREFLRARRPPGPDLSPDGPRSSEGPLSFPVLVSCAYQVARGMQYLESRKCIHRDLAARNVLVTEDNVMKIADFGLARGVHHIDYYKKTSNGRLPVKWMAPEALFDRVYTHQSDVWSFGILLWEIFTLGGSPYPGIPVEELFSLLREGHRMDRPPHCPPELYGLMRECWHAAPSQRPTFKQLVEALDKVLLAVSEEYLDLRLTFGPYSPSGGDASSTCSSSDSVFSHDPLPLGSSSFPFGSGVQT
T4 sequence (P22455 22-802 V550M): as the sequence (P22455 22-802) above, with V529M counted along it
T5 sequence (P53355 whole entry): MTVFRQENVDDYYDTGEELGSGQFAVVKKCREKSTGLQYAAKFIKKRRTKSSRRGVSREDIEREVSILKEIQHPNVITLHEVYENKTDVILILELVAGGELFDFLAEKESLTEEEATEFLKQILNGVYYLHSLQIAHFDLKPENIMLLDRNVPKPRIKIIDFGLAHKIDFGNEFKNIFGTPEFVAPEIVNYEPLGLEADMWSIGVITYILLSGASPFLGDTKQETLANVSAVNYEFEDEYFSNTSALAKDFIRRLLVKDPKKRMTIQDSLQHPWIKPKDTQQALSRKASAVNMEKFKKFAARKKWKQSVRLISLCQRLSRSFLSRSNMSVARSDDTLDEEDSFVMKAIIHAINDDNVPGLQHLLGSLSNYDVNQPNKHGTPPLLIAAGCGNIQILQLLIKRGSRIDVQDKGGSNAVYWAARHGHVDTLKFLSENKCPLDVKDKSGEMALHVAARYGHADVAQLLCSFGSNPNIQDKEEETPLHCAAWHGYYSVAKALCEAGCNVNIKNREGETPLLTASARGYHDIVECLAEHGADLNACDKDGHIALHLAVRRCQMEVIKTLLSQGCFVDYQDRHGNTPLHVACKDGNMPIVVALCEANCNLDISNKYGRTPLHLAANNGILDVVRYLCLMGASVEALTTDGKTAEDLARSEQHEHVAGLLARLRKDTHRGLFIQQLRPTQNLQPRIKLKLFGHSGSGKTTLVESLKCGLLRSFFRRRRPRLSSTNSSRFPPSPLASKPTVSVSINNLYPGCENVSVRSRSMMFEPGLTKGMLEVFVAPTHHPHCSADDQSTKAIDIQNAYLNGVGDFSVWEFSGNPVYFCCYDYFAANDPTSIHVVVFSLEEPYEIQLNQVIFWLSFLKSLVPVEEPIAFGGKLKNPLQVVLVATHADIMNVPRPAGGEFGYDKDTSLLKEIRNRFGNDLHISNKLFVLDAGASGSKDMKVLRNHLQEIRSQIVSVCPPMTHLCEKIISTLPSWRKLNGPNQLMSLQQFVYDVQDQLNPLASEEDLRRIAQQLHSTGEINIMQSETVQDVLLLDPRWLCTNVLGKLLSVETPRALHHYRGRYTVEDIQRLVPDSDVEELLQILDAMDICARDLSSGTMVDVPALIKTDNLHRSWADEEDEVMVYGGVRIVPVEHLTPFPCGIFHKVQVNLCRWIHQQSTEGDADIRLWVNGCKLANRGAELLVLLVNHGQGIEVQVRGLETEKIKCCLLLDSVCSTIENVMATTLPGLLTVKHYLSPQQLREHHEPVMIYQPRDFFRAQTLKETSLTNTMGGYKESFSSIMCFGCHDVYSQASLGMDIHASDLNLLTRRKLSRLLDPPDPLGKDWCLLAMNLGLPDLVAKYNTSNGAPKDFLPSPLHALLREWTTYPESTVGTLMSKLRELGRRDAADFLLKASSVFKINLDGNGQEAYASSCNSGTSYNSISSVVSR
T11 sequence (P68400 whole entry): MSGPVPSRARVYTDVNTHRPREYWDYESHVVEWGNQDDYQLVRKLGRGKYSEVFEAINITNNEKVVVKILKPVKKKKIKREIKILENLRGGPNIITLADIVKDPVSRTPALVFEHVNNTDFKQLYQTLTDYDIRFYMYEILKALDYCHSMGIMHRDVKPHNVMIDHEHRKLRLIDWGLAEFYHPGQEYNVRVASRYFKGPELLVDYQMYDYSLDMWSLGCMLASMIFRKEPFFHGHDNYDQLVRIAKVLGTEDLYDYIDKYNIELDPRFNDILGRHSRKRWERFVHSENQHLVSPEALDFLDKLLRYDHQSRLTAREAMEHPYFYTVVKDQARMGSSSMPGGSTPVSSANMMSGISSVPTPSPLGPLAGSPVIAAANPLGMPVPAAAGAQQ
T7 sequence (Q16512 whole entry): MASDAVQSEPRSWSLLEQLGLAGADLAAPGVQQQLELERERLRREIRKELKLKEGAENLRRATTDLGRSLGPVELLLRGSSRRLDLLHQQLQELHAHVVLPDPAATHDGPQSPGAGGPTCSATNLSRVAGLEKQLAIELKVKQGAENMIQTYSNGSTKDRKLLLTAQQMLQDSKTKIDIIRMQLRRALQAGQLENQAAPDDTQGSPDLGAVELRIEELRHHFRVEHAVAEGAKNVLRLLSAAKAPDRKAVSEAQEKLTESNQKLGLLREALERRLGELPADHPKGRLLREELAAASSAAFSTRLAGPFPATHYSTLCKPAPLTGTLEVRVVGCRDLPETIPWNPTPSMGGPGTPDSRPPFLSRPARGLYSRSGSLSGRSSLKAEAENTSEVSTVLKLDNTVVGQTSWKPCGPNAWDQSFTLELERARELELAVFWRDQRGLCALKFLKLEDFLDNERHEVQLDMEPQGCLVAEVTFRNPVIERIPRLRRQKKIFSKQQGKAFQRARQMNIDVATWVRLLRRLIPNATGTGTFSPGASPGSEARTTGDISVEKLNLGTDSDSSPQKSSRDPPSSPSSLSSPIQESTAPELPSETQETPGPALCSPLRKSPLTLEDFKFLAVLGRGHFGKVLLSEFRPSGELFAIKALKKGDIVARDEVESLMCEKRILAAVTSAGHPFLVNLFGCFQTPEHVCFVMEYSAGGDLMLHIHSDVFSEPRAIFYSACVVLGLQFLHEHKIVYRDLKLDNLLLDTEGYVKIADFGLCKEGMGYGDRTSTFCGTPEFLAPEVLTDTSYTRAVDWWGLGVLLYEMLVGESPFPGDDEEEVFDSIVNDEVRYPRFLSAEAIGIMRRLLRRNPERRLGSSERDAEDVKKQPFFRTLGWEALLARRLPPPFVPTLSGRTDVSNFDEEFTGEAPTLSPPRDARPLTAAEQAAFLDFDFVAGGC
T9 sequence (Q9Y243 whole entry E17K): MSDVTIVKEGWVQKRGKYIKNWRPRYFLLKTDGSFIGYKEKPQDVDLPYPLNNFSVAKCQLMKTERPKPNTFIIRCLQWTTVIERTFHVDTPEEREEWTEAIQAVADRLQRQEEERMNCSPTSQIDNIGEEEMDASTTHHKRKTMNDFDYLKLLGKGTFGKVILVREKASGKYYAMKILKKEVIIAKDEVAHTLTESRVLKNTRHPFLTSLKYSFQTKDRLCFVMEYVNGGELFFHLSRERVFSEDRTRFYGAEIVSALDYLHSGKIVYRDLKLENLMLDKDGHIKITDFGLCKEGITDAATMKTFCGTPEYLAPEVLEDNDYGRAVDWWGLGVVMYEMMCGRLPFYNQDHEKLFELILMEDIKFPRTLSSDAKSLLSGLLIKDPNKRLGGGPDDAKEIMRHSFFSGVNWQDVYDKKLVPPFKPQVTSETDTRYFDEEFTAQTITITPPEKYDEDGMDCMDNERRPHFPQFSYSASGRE

SMILES	remaining activity at 10 µM [1] [%]	remaining activity at 10 µM [2] [%]	remaining activity at 10 µM [3] [%]	remaining activity at 10 µM [4] [%]	remaining activity at 10 µM [5] [%]	remaining activity at 10 µM [6] [%]	remaining activity at 10 µM [7] [%]	remaining activity at 10 µM [8] [%]	remaining activity at 10 µM [9] [%]	remaining activity at 10 µM [10] [%]	remaining activity at 10 µM [11] [%]	remaining activity at 10 µM [12, 13] [%]	further results
CC(C)c1cc(-c2n[nH]c(=O)n2-c2ccc3c(ccn3C)c2)c(O)cc1O [Ganetespib (STA9090)]	109	86.3	71.5	85.2	83.3	125	71.7	84.8	77.7				
CC(C)c1cc(-c2n[nH]c(=O)n2-c2ccc3c(ccn3C)c2)c(O)cc1O [Ganetespib]										94	101	14.5	remaining activity at 1 µM ([12]; compound 1 uM, read-out: % Enzyme Activity (relative to DMSO controls)): 51.9%
CCNC(=O)c1noc(-c2cc(C(C)C)c(O)cc2O)c1-c1ccc(CN2CCOCC2)cc1 [Luminespib]										102	117	107	% Enzyme Activity (relative to DMSO controls) [10]: 101.25%; % Enzyme Activity (relative to DMSO controls) [11]: 112.96%; % Enzyme Activity (relative to DMSO controls) ([12]; compound 10 uM): 105.89%
CCNC(=O)c1noc(-c2cc(C(C)C)c(O)cc2O)c1-c1ccc(CN2CCOCC2)cc1 [Luminespib (AUY-922)]	110	98.3	97.1	72.2	83.5	120	75.6	102	84.2				% Enzyme Activity (relative to DMSO controls) [1]: 109.18%; % Enzyme Activity (relative to DMSO controls) [2]: 97.19%; % Enzyme Activity (relative to DMSO controls) [3]: 96.06%; % Enzyme Activity (relative to DMSO controls) [4]: 64.75%; % Enzyme Activity (relative to DMSO controls) [5]: 82.81%; % Enzyme Activity (relative to DMSO controls) [6]: 117.92%; % Enzyme Activity (relative to DMSO controls) [7]: 73.04%; % Enzyme Activity (relative to DMSO controls) [8]: 97.45%; % Enzyme Activity (relative to DMSO controls) [9]: 79.36%
